One assay addresses FGFR4 (Homo sapiens, UniProt P22455). Nature of the assay: FGFR4 Caliper Assay (in vitro biochemical kinase analysis of FGFR4). The settings on record: read-out: Enzymatic activity FGFR4 IC50. An outline of the steps:
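Kinase reaction at 30° C for 40 min in 50 mM HEPES pH 7.5, 16 mM MgCl2, 1 mM DTT, 0.6% DMSO, stopped with EDTA. Phosphorylated and unphosphorylated fluorescent peptides separated by Caliper microfluidic mobility shift. IC50 by non-linear regression of percent inhibition.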

Assay [1] concerns Huh7 hepatocellular carcinoma cells. As to the kind of experiment: FGFR4 cell proliferation experiment, Cell Titer Glo (CTG). In kind it is cell-based. Conditions: Homo sapiens, Huh-7, 72 h, HuH-7 cells, 3 days; for IC50: concentration leading to absolute half growth inhibition; for EC50: concentration leading to half maximal growth inhibition. In a few lines: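 Cells treated with 5-fold serial dilutions starting at 10 μM for 3 days at 37° C, 5% CO2. Proliferation/survival quantified as cellular ATP by CellTiter-Glo luminescence.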
For orientation: In ATP-based viability assays light output follows the ATP content of the culture.

The IC50 is the concentration that gives 50% inhibition. A word on the EC50: it is the midpoint of the concentration-response curve.

Molecules are shown by their SMILES.

Chain of FGFR4 (P22455 22-802): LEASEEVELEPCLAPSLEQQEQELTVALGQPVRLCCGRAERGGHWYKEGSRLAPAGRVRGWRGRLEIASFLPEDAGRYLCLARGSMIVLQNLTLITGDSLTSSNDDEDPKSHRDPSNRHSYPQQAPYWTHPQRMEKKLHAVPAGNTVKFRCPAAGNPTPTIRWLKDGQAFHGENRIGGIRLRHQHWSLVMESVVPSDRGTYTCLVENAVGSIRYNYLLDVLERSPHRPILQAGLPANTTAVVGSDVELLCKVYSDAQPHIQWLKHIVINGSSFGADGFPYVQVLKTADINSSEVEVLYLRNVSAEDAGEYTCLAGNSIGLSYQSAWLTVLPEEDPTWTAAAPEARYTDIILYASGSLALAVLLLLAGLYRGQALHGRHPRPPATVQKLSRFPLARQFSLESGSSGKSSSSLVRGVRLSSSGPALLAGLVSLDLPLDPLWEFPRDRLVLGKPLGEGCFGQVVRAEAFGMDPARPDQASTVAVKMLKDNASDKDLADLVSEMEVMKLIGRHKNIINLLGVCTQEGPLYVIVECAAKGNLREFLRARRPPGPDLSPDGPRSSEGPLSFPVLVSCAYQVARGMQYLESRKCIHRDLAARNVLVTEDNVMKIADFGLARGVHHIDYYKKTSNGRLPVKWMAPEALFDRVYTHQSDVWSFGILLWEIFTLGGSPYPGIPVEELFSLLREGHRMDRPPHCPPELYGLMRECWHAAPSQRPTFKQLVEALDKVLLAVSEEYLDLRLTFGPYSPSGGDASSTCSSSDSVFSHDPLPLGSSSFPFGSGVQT

In the case of `C=CC(=O)N[C@H]1COC[C@H]1Nc1ncc2cc(-c3c(Cl)c(OC)cc(OC)c3Cl)nc(N3CC(C)(OC)C3)c2n1` [Example 665, N-((3R,4S)-4-((6-(2,6-dichloro-3,5-di-methoxyphenyl)-8-(3-methoxy-3-methylazetidin-1-yl)pyrido[3,4-d]py-rimidin-2-yl)amino)tetrahydrofuran-3-yl)acrylamide], the IC50 on FGFR4 was 5.7 nM. In assay [1], this compound gave an IC50 of 11.8 nM and an EC50 of 9.9 nM.

Turning to `C=CC(=O)N[C@H]1COC[C@H]1Nc1ncc2cc(-c3c(F)c(OC)cc(OC)c3F)nc(N3CC(C)(OC)C3)c2n1` [Example 666, N-((3R,4S)-4-((6-(2,6-difluoro-3,5-dimethoxyphenyl)-8-(3-methoxy-3-methylazetidin-1-yl)pyrido[3,4-d]pyri-midin-2-yl)amino)tetrahydrofuran-3-yl)acrylamide], the IC50 at FGFR4 is 4.5 nM. In assay [1], this compound registered an IC50 of 4.6 nM and an EC50 of 3.2 nM.

`C=CC(=O)N[C@H]1COC[C@H]1Nc1ncc2cc(-c3c(Cl)c(OC)cc(OC)c3Cl)nc(N3CC4(COC4)C3)c2n1` [Example 668, N-((3R,4S)-4-((6-(2,6-dichloro-3,5-dimethoxyphenyl)-8-(2-oxa-6-aza-spiro[3.3]heptan-6-yl)pyrido[3,4-d]py-rimidin-2-yl)amino)tetrahydrofuran-3-yl)acrylamide]: the results for the IC50 (on FGFR4; in assay [1]) were 14.7 nM and 22.6 nM, respectively. This compound also displayed an EC50 in assay [1] of 16 nM.

For the compound `C=CC(=O)N[C@H]1COC[C@H]1Nc1ncc2cc(-c3c(Cl)c(OC)cc(OC)c3Cl)nc(N3CC4(CCOCC4)C3)c2n1` [Example 675, N-((3R,4S)-4-((6-(2,6-dichloro-3,5-dimethoxyphenyl)-8-(7-oxa-2-azaspiro[3.5]nonan-2-yl)pyrido[3,4-d]pyrimidin-2-yl)amino)tetrahydrofuran-3-yl)acrylamide], the IC50 on FGFR4 is 11 nM. In assay [1], the IC50 turned out to be 8.7 nM and the EC50 was found to be 6.2 nM.

`C=CC(=O)N[C@H]1COC[C@H]1Nc1ncc2cc(-c3c(Cl)c(OC)cc(OC)c3Cl)nc(N3CCC(OC)C3)c2n1` (stereo partly drawn) [Example 677, N-((3R,4S)-4-((6-(2,6-dichloro-3,5-dimethoxyphenyl)-8-(3-methoxypyrro-lidin-1-yl)pyrido[3,4-d]pyrimidin-2-yl)amino)tetrahydrofuran-3-yl)acryl-amide]: at FGFR4, the half-maximal inhibitory concentration (IC50) turned out to be 7.4 nM. In assay [1], the IC50 was 5.3 nM and a half-maximal effect (EC50) was put at 3.7 nM.

Consider `C=CC(=O)N[C@H]1COC[C@H]1Nc1ncc2cc(-c3c(F)c(OC)cc(OC)c3F)nc(N3CCC(OC)C3)c2n1` (stereo partly drawn) [Example 678, N-((3R,4S)-4-((6-(2,6-difluoro-3,5-di-methoxyphenyl)-8-(3-methoxypyrro-lidin-1-yl)pyrido[3,4-d]pyrimidin-2-yl)amino)tetrahydrofuran-3-yl)acryl-amide], for which, at FGFR4, the IC50 was 6.5 nM. In addition, in assay [1], the IC50 is 16.5 nM and the response was half-maximal at 13.3 nM (EC50).

In the case of `C=CC(=O)N[C@H]1COC[C@H]1Nc1ncc2cc(-c3c(Cl)c(OC)cc(OC)c3Cl)nc(N3CCOCC3)c2n1` [Example 686, N-((3R,4S)-4-((6-(2,6-dichloro-3,5-dimethoxyphenyl)-8-morpholino-pyrido[3,4-d]pyrimidin-2-yl)amino)tetra-hydrofuran-3-yl)acrylamide], the IC50 on FGFR4 was determined as 8.2 nM. In assay [1], this compound yielded an IC50 of 8.8 nM and an EC50 of 5.4 nM.

On to `C=CC(=O)N[C@H]1COC[C@H]1Nc1ncc2cc(-c3c(F)c(OC)cc(OC)c3F)nc(N3CCOCC3)c2n1` [Example 687, N-((3R,4S)-4-((6-(2,6-difluoro-3,5-dimethoxyphenyl)-8-morpholino-pyrido[3,4-d]pyrimidin-2-yl)a-mino)tetrahydrofuran-3-yl)acrylamide], for which the IC50 on FGFR4 worked out at 6.3 nM. In assay [1], this compound yielded an IC50 of 10 nM and an EC50 of 6.9 nM.

Consider `C=CC(=O)N[C@H]1COC[C@H]1Nc1ncc2cc(-c3c(Cl)c(OC)cc(OC)c3Cl)nc(N3CC(C)OC(C)C3)c2n1` (stereo partly drawn) [Example 690, N-((3R,4S)-4-((6-(2,6-dichloro-3,5-dimethoxyphenyl)-8-(2,6-dimethyl-morpholino)pyrido[3,4-d]pyrimidin-2-yl)amino)tetrahydrofuran-3-yl)acryl-amide], for which the IC50 on FGFR4 is 8 nM. For the same compound, in assay [1], it took 12.1 nM to reach half-maximal inhibition (IC50) and the EC50 was 8.4 nM.

`C=CC(=O)N[C@H]1COC[C@H]1Nc1ncc2cc(-c3c(Cl)c(OC)cc(OC)c3Cl)nc(N3CCC(OC)CC3)c2n1` [Example 693, N-((3R,4S)-4-((6-(2,6-dichloro-3,5-dimethoxyphenyl)-8-(4-methoxy-piperidin-1-l)pyrido[3,4-d]pyrimidin-2-yl)amino)tetrahydrofuran-3-yl)acryl-amide]: the IC50 at FGFR4 stood at 5.6 nM. In assay [1], this compound had an IC50 of 2.1 nM and an EC50 of 1.3 nM.

Regarding `C=CC(=O)N[C@H]1COC[C@H]1Nc1ncc2cc(-c3c(F)c(OC)cc(OC)c3F)nc(N3CCC(OC)CC3)c2n1` [Example 694, N-((3R,4S)-4-((6-(2,6-difluoro-3,5-dimethoxyphenyl)-8-(4-methoxypiper-idin-1-yl)pyrido[3,4-d]pyrimidin-2-yl)amino)tetrahydrofuran-3-yl)acryl-amide], the IC50 at FGFR4 came to 4.8 nM. In assay [1], this compound showed an IC50 of 12 nM and an EC50 of 10 nM.

Take `C=CC(=O)N[C@H]1CCOC[C@H]1Nc1ncc2cc(-c3c(Cl)c(OC)cc(OC)c3Cl)nc(N3CC(OC)C3)c2n1` [Example 704, N-((3S,4S)-3-((6-(2,6-dichloro-3,5-di-methoxyphenyl)-8-(3-methoxyazeti-din-1-yl)pyrido[3,4-d]pyrimidin-2-yl)amino)tetrahydro-2H-pyran-4-yl)acrylamide]: on FGFR4, the IC50 was found to be 8.5 nM. Also, in assay [1], the 50% inhibitory concentration (IC50) stood at 20.2 nM and the EC50 was found to be 17.2 nM.

In the case of `C=CC(=O)Nc1cnn(CCOC)c1-c1ncc2cc(-c3c(Cl)c(OC)cc(OC)c3Cl)ncc2n1` [Example 715, N-(5-(6-(2,6-dichloro-3,5-dimethoxyphenyl)pyrido[3,4-d]pyrimidin-2-yl)-1-(2-methoxyethyl)-1H-pyrazol-4-yl)acrylamide], on FGFR4, the 50% inhibitory concentration (IC50) is 62.7 nM. In assay [1], half-maximal inhibition (IC50) was put at 1920 nM and the EC50 is 1920 nM.

`C=CC(=O)Nc1cnn(CCOC)c1-c1cc2cnc(-c3c(Cl)c(OC)cc(OC)c3Cl)cc2cn1` [Example 723, N-(5-(7-(2,6-dichloro-3,5-dimethoxyphenyl)-2,6-naphthyridin-3-yl)-1-(2-methoxyethyl)-1H-pyrazol-4-yl)acrylamide]: the IC50 worked out at 78.5 nM on FGFR4 and 1210 nM in assay [1]. In assay [1], this compound came in with an EC50 of 338 nM.

For `C=CC(=O)NCc1cc2c(cn1)cc(-c1c(Cl)c(OC)cc(OC)c1Cl)c(=O)n2C` [Example 730, N-((3-(2,6-dichloro-3,5-dimethoxyphenyl)-1-methyl-2-oxo-1,2-dihydro-1,6-naphthyridin-7-yl)methyl)acrylamide], the half-inhibitory concentration (IC50) on FGFR4 was determined as 115 nM. Moreover, in assay [1], the half-maximal inhibitory concentration (IC50) came to 194 nM and the EC50 came to 164 nM.

On to `C=CC(=O)N[C@H]1COC[C@H]1Nc1cc2c(NC)nc(-c3c(Cl)c(OC)cc(OC)c3Cl)nc2cn1` [Example 752, N-((3R,4S)-4-((2-(2,6-dichloro-3,5-dimethoxyphenyl)-4-(methylamino)pyrido [3,4-d]pyrimidin-6-yl)amino)tetrahydro-furan-3-yl)acrylamide], for which the IC50 at FGFR4 amounted to 991 nM. In assay [1], the IC50 is 2630 nM and the midpoint of the response, the EC50, lay at 1710 nM.

These data come from patent US11555036B2, “FGFR4 inhibitor, preparation method therefor and pharmaceutical use thereof” (Abbisko Therapeutics Co., Ltd., priority 2016, dated 2023).
